Key:
NDM-1 [1] = target: T1, NDM-1 (Klebsiella pneumoniae, UniProt C7C422); assay: Inhibition of purified class B carbapenemase NDM-1 (Ki, imipenem substrate); format: biochemical; conditions: NDM-1, substrate imipenem; read-out: Ki NDM-1, Imipenem
[2] = target: T2, purified class A, C and D enzymes (UniProt Q6XEC0); format: biochemical; conditions: read-out: Ki (OXA-48, NCF); purified OXA-48; nitrocefin reporter substrate
T2 construct: rows headed: Ki (OXA-48, NCF); other: purified OXA-48; nitrocefin reporter substrate

[3] = target: T3, purified class A, C and D enzymes (UniProt P0AD64, L31Q/G234S/E235K, species not given); format: biochemical; conditions: read-out: Ki (SHV-12, NCF); purified SHV-12; nitrocefin reporter substrate
T3 construct: Ki (SHV-12, NCF); other: purified SHV-12; nitrocefin reporter substrate
T3 sequence (P0AD64 1-286 L31Q/G234S/E235K): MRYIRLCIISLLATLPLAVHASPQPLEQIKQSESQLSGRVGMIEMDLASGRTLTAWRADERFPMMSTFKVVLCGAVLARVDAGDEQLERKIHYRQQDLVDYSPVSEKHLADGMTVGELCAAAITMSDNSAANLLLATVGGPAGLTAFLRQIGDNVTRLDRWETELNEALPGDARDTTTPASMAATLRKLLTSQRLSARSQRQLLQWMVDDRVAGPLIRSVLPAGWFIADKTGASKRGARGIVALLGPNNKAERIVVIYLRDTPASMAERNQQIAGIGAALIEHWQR

[4] = target: purified class A, C and D enzymes (Enterobacter cloacae, UniProt P05364); format: biochemical; conditions: purified P99/AmpC of ECL; nitrocefin reporter substrate
Sequence of purified class A, C and D enzymes (Enterobacter cloacae, UniProt P05364) (P05364 21-381): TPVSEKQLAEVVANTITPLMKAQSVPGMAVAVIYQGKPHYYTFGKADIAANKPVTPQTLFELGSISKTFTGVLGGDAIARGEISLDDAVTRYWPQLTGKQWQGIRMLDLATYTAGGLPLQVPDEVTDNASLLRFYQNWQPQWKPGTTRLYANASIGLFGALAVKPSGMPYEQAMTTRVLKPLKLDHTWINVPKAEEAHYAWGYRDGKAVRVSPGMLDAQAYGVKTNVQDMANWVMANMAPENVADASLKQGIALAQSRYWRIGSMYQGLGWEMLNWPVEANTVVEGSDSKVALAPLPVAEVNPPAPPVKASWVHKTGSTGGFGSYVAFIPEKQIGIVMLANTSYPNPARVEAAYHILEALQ

[5] = target: T4, purified class A, C and D enzymes (UniProt Q9F663); format: biochemical; conditions: read-out: Ki (KPC-2, NCF); purified KPC-2; nitrocefin reporter substrate
T4 construct: rows headed: Ki (KPC-2, NCF); other: purified KPC-2; nitrocefin reporter substrate

[6] = target: purified class A, C and D enzymes (Escherichia coli, UniProt Q9L5C7); format: biochemical; conditions: purified CTX-M-14; nitrocefin reporter substrate
Sequence of purified class A, C and D enzymes (Escherichia coli, UniProt Q9L5C7) (Q9L5C7 entry or part of it): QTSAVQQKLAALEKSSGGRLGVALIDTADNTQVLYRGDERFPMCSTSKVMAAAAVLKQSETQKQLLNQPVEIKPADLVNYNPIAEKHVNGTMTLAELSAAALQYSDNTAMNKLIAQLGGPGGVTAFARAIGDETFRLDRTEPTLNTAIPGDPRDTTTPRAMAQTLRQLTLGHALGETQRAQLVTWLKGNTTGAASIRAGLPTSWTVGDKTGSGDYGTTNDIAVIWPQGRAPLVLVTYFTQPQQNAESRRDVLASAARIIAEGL

NDM-1 [7] = target: T1, NDM-1; assay: biochemical; conditions: cleavage of imipenem (100 uM) by NDM-1; read-out: Ki, Imipenem
VIM-1 = target: T5, VIM-1 (Pseudomonas aeruginosa, UniProt A0A0F7KYQ8); assay: biochemical; conditions: cleavage of nitrocefin (200 uM) by VIM-1 supernatant
T5 construct: made in house; host or cells: ECM6711 strain carrying pUCP24-VIM-1 plasmid; culture supernatant used unpurified

T1 sequence (C7C422 29-270, looked up, species assumed): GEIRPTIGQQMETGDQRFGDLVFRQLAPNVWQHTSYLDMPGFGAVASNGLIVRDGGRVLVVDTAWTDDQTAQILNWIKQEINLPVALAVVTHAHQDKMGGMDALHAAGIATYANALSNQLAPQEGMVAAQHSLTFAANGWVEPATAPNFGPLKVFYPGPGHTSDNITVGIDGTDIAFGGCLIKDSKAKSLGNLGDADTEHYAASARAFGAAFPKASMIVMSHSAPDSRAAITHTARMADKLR

| Compound | Ki (NDM-1 [1]) | Ki [2] | Ki [3] | Ki (P99/AmpC of ECL, NCF) [4] | Ki [5] | Ki (CTX-M-14, NCF) [6] | Ki (NDM-1 [7]) | IC50 (VIM-1) |
| --- | --- | --- | --- | --- | --- | --- | --- | --- |
| COc1ccc2c(c1C(=O)O)OB(O)[C@@H](Sc1cncs1)C2 [Compound 69, (3R)-2-hydroxy-7-methoxy-3-thiazol-5-ylsulfanyl-3,4-dihydro-1,2-benzoxaborinine-8-carboxylic acid] | > 100 nM | < 100 nM | < 100 nM | Y (0.1 μM to 1 μM) | < 100 nM | X (Less than 0.1 μM) | > 100 nM | < 1000 nM |
| Nc1ncc(S[C@H]2Cc3ccc(F)c(C(=O)O)c3OB2O)s1 [Compound 52, (3R)-3-(2-aminothiazol-5-yl)sulfanyl-7-fluoro-2-hydroxy-3,4-dihydro-1,2-benzoxaborinine-8-carboxylic acid] | > 100 nM | < 100 nM | < 100 nM | Y (0.1 μM to 1 μM) | < 100 nM | X (Less than 0.1 μM) | > 100 nM | < 1000 nM |
| COc1ccc2c(c1C(=O)O)OB(O)[C@@H](Sc1nncn1N)C2 [Compound 26, (R)-3-(4-amino-4H-1,2,4-triazol-3-ylthio)-2-hydroxy-7-methoxy-3,4-dihydro-2H-benzo[e][1,2]oxaborinine-8-carboxylic acid] | < 10 nM | < 100 nM | < 100 nM | Y (0.1 μM to 1 μM) | 100 to 1000 nM | X (Less than 0.1 μM) | < 10 nM | < 1000 nM |
| N#CCS[C@H]1Cc2ccc(F)c(C(=O)O)c2OB1O [Compound 51, (3R)-3-(cyanomethylsulfanyl)-7-fluoro-2-hydroxy-3,4-dihydro-1,2-benzoxaborinine-8-carboxylic acid] | > 100 nM | < 100 nM | < 100 nM | Z (Greater than 1 μM) | < 100 nM | X (Less than 0.1 μM) | > 100 nM | ≥ 1000 nM |
| Nc1nnc(S[C@H]2Cc3ccc(OCC(F)F)c(C(=O)O)c3OB2O)s1 [Compound 90, (3R)-3-[(5-amino-1,3,4-thiadiazol-2-yl)sulfanyl]-7-(2,2-difluoroethoxy)-2-hydroxy-3,4-dihydro-1,2-benzoxaborinine-8-carboxylic acid] | 10 to 100 nM | < 100 nM | < 100 nM | Z (Greater than 1 μM) | < 100 nM | X (Less than 0.1 μM) | 10 to 100 nM | < 1000 nM |
| NCCSc1nnc(S[C@H]2Cc3cccc(C(=O)O)c3OB2O)s1 [Compound 116, (3R)-3-[[5-(2-aminoethylsulfanyl)-1,3,4-thiadiazol-2-yl]sulfanyl]-2-hydroxy-3,4-dihydro-1,2-benzoxaborinine-8-carboxylic acid] | < 10 nM | < 100 nM | < 100 nM | X (Less than 0.1 μM) | < 100 nM | X (Less than 0.1 μM) | < 10 nM | < 1000 nM |
| COc1ccc2c(c1C(=O)O)OB(O)[C@@H](Sc1nnc(CN3CCNCC3)n1N)C2 [Compound 71, (3R)-3-[[4-amino-5-(piperazin-1-ylmethyl)-1,2,4-triazol-3-yl]sulfanyl]-2-hydroxy-7-methoxy-3,4-dihydro-1,2-benzoxaborinine-8-carboxylic acid] | 10 to 100 nM | 100 to 1000 nM | < 100 nM | Z (Greater than 1 μM) | 100 to 1000 nM | X (Less than 0.1 μM) | 10 to 100 nM | < 1000 nM |
| COc1ccc2c(c1C(=O)O)OB(O)[C@@H](Sc1ncn(CCCC(=O)O)n1)C2 [Compound 40, (R)-3-(1-(3-carboxypropyl)-1H-1,2,4-triazol-3-ylthio)-2-hydroxy-7-methoxy-3,4-dihydro-2H-benzo[e][1,2]oxaborinine-8-carboxylic acid] | > 100 nM | < 100 nM | < 100 nM | X (Less than 0.1 μM) | < 100 nM | X (Less than 0.1 μM) | > 100 nM | ≥ 1000 nM |
| COc1ccc2c(c1C(=O)O)OB(O)[C@@H](Sc1nnc(OCCN)s1)C2 [Compound 117, (3R)-3-[[5-(2-aminoethoxy)-1,3,4-thiadiazol-2-yl]sulfanyl]-2-hydroxy-7-methoxy-3,4-dihydro-1,2-benzoxaborinine-8-carboxylic acid] | < 10 nM | < 100 nM | < 100 nM | Y (0.1 μM to 1 μM) | 100 to 1000 nM | X (Less than 0.1 μM) | < 10 nM | < 1000 nM |
| NC(=O)c1csc(S[C@H]2Cc3ccc(F)c(C(=O)O)c3OB2O)n1 [Compound 54, (3R)-3-(4-carbamoylthiazol-2-yl)sulfanyl-7-fluoro-2-hydroxy-3,4-dihydro-1,2-benzoxaborinine-8-carboxylic acid] | > 100 nM | < 100 nM | < 100 nM | Y (0.1 μM to 1 μM) | < 100 nM | X (Less than 0.1 μM) | > 100 nM | < 1000 nM |
| COc1ccc2c(c1C(=O)O)OB(O)[C@@H](Sc1cnns1)C2 [Compound 60, (3R)-2-hydroxy-7-methoxy-3-(thiadiazol-5-ylsulfanyl)-3,4-dihydro-1,2-benzoxaborinine-8-carboxylic acid] | > 100 nM | < 100 nM | < 100 nM | Z (Greater than 1 μM) | < 100 nM | X (Less than 0.1 μM) | > 100 nM | < 1000 nM |
| COc1ccc2c(c1C(=O)O)OB(O)[C@@H](Sc1nnc(SCCN3CCOCC3)s1)C2 [Compound 110, (3R)-2-hydroxy-7-methoxy-3-[[5-(2-morpholinoethylsulfanyl)-1,3,4-thiadiazol-2-yl]sulfanyl]-3,4-dihydro-1,2-benzoxaborinine-8-carboxylic acid] | > 100 nM | < 100 nM | < 100 nM | Y (0.1 μM to 1 μM) | < 100 nM | X (Less than 0.1 μM) | > 100 nM | < 1000 nM |
| COc1ccc2c(c1C(=O)O)OB(O)[C@@H](SC1CN(C3=NCCS3)C1)C2 [Compound 65, (3R)-3-[1-(4,5-dihydrothiazol-2-yl)azetidin-3-yl]sulfanyl-2-hydroxy-7-methoxy-3,4-dihydro-1,2-benzoxaborinine-8-carboxylic acid] | > 100 nM | < 100 nM | < 100 nM | Z (Greater than 1 μM) | < 100 nM | X (Less than 0.1 μM) | > 100 nM | ≥ 1000 nM |
| COc1c(F)cc2c(c1C(=O)O)OB(O)[C@@H](Sc1nnc(N)s1)C2 [Compound 114, (3R)-3-[(5-amino-1,3,4-thiadiazol-2-yl)sulfanyl]-6-fluoro-2-hydroxy-7-methoxy-3,4-dihydro-1,2-benzoxaborinine-8-carboxylic acid] | 10 to 100 nM | < 100 nM | < 100 nM | Y (0.1 μM to 1 μM) | 100 to 1000 nM | X (Less than 0.1 μM) | 10 to 100 nM | < 1000 nM |
| COc1ccc2c(c1C(=O)O)OB(O)[C@@H](Sc1nnc(N[C@H]3CCNC3)s1)C2 [Compound 103, (3R)-2-hydroxy-7-methoxy-3-[[5-[[(3S)-pyrrolidin-3-yl]amino]-1,3,4-thiadiazol-2-yl]sulfanyl]-3,4-dihydro-1,2-benzoxaborinine-8-carboxylic acid] | < 10 nM | < 100 nM | < 100 nM | Y (0.1 μM to 1 μM) | 100 to 1000 nM | X (Less than 0.1 μM) | < 10 nM | < 1000 nM |
| COc1ccc2c(c1C(=O)O)OB(O)[C@@H](Sc1nccs1)C2 [Compound 47, (R)-2-hydroxy-7-methoxy-3-(thiazol-2-ylthio)-3,4-dihydro-2H-benzo[e][1,2]oxaborinine-8-carboxylic acid] | 10 to 100 nM | < 100 nM | < 100 nM | Y (0.1 μM to 1 μM) | 100 to 1000 nM | X (Less than 0.1 μM) | > 100 nM | < 1000 nM |

From patent US10206937B2, “Boronic acid derivatives and therapeutic uses thereof” (Qpex Biopharma, Inc., priority 2014, dated 2019)
